Test [1] addresses T1, 5-hydroxytryptamine receptor 1A (Rattus norvegicus, UniProt P19327).
T1 sequence (P19327 whole entry): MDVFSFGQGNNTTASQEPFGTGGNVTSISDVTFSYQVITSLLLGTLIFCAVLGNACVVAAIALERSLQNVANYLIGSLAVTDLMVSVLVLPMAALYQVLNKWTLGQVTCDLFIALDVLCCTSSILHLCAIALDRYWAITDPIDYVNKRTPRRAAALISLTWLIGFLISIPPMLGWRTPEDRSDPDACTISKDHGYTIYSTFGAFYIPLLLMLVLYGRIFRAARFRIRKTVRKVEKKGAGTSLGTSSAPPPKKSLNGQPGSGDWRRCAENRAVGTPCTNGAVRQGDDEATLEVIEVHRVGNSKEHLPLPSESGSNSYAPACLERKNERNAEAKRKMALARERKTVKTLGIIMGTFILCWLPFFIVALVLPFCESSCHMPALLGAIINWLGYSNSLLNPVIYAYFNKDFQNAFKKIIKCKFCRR
Nature of the test: In vitro inhibitory activity against [3H]8-OH-DPAT binding to 5-hydroxytryptamine 1A receptor.

Test [2] addresses Serotonin 2 (5-HT2) receptor (Rattus norvegicus, UniProt P30994+P08909+P14842). Kind of test: In vitro inhibitory activity against [3H]ketanserin binding to 5-hydroxytryptamine 2 receptor. Format: protein assay.
Test [3] has as its system Mus musculus. Nature of the test: In vivo effective dose required to antagonize the apomorphine induced climbing response in mice administered intraperitoneally. The test is classed as functional. The settings on record: ip.
Test [4] deals with Mus musculus. Kind of test: In vivo effective dose required to antagonize the apomorphine induced climbing response in mice administered perorally. The settings on record: po. Format: functional.

Regarding `Cl.O=C(NCCCCN1CCN(c2nsc3ccccc23)CC1)c1ccccc1`, the IC50 was 5.2 nM in test [1] and 2.1 nM in test [2]. The median effective dose (ED50) in test [3] amounted to 1.1 mg/kg; in test [4] it was 21.5 mg/kg.

Regarding `CN(CCCCN1CCN(c2nsc3ccccc23)CC1)C(=O)c1ccccc1.Cl`, the IC50 in test [1] stood at 1.4 nM; in test [2], 3.9 nM. For the same compound, the values for the ED50 in test [3] and in test [4] were 10 mg/kg and 22.4 mg/kg, respectively.

Regarding `CCOC(=O)Nc1ccccc1C(=O)NCCCCN1CCN(c2nsc3ccccc23)CC1.Cl`, the IC50 in test [2] came out at 1.4 nM. Besides, the ED50 in test [3] was determined as 1.8 mg/kg; in test [4], 32.8 mg/kg.

For the compound `Cl.O=C(NCCCCN1CCN(c2nsc3ccccc23)CC1)c1ccc(C(F)(F)F)cc1`, the IC50 in test [1] amounted to 9.1 nM; in test [2], 1.5 nM. For the same compound, the 50% effective dose (ED50) was 12.5 mg/kg in test [3] and over 25 mg/kg in test [4].

Consider `Cl.O=C(NCCCCN1CCN(c2nsc3ccccc23)CC1)c1ccc(Cl)cc1`, for which the half-maximal inhibitory concentration (IC50) in test [1] stood at 15 nM; in test [2] it was 5.6 nM. For the same compound, the results for the ED50 in test [3] and in test [4] were 9.4 mg/kg and over 25 mg/kg, respectively.

With `Cl.O=C(NCCCCN1CCN(c2nsc3ccccc23)CC1)c1ccccc1[N+](=O)[O-]`, the IC50 in test [1] was determined as 6.4 nM; in test [2] it was 3.7 nM. Further, it took a dose of 25 mg/kg to reach the 50% effect level in test [3] (ED50).

Take `COc1ccc(N)c(C(=O)NCCCCN2CCN(c3nsc4ccccc34)CC2)c1.Cl`: the IC50 in test [1] amounted to 10 nM; in test [2] it was 1.4 nM. In addition, the ED50 in test [3] was 2.1 mg/kg; in test [4], over 50 mg/kg.

For `Cl.NNc1ccccc1C(=O)NCCCCN1CCN(c2nsc3ccccc23)CC1`, the IC50 in test [1] was 3.8 nM; in test [2], 2.4 nM. Also, the ED50 in test [3] was determined as 10.8 mg/kg; in test [4] it was 40.4 mg/kg.

For `Cc1cccc(N)c1C(=O)NCCCCN1CCN(c2nsc3ccccc23)CC1.Cl`, the concentration for half-maximal inhibition (IC50) in test [1] stood at 64 nM; in test [2], 8.9 nM. This compound had a median effective dose (ED50) in test [3] of over 25 mg/kg.

Consider `Cl.O=C(NCCCCN1CCN(c2nsc3ccccc23)CC1)c1ccc(/N=N/c2ccccc2)cc1`, for which the half-inhibitory concentration (IC50) was found to be 540 nM in test [1] and 26 nM in test [2]. Moreover, the 50% effective dose (ED50) in test [3] is over 25 mg/kg.

For `CC(C)(C)OC(=O)Nc1cccc(C(=O)NCCCCN2CCN(c3nsc4ccccc34)CC2)c1.Cl`, the IC50 in test [1] is 12 nM; in test [2], 1.3 nM. In test [3], the ED50 was over 25 mg/kg.

As to `CC(C)(C)OC(=O)Nc1ccc(C(=O)NCCCCN2CCN(c3nsc4ccccc34)CC2)cc1.Cl`, the IC50 came out at 0.7 nM in test [1] and 0.23 nM in test [2]. Also, the ED50 in test [3] was over 25 mg/kg.

As to `CC(C)[C@@H](Nc1ccccc1C(=O)NCCCCN1CCN(c2nsc3ccccc23)CC1)C(=O)O.Cl`, the IC50 in test [1] amounted to 8.6 nM; in test [2], 1.6 nM. Also, the 50% effective dose (ED50) in test [3] was over 25 mg/kg.

With `CCc1cc(Cl)c(OC)c(C(=O)NCCCCN2CCN(c3nsc4ccccc34)CC2)c1O.Cl`, the IC50 in test [1] was found to be 69 nM; in test [2], 6.8 nM. The ED50 in test [3] was over 25 mg/kg.

On to `CN(CCCCN1CCN(c2nsc3ccccc23)CC1)C(=O)c1ccccc1N.Cl`, for which the results for the IC50 in test [1] and in test [2] were 1.2 nM and 2.3 nM, respectively. Further, the 50% effective dose (ED50) in test [3] was over 12 mg/kg.

Turning to `CCc1cc(Cl)c(OC)c(C(=O)NCCCCN2CCN(c3nsc4ccccc34)CC2)c1OC.Cl`, the 50% inhibitory concentration (IC50) was found to be 180 nM in test [1] and 30 nM in test [2]. The same compound came in with an ED50 in test [3] of 26 mg/kg.

In the case of `COc1c(Br)ccc(O)c1C(=O)NCCCCN1CCN(c2nsc3ccccc23)CC1.Cl`, the IC50 in test [2] is 14 nM. In addition, the 50% effective dose (ED50) in test [3] is 4.7 mg/kg; in test [4], over 25 mg/kg.

`Cl.Nc1cccc(C(=O)NCCCCN2CCN(c3nsc4ccccc34)CC2)c1`: the half-maximal inhibitory concentration (IC50) is 6.6 nM in test [1] and 2.6 nM in test [2].

As to `CCc1cc(Cl)c(O)c(C(=O)NCCCCN2CCN(c3nsc4ccccc34)CC2)c1OC.Cl`, the IC50 was 23 nM in test [1] and 6.3 nM in test [2]. Moreover, it took a dose of 25.5 mg/kg to reach the 50% effect level in test [3] (ED50).

`Cl.Nc1ccc(F)cc1C(=O)NCCCCN1CCN(c2nsc3ccccc23)CC1`: the half-inhibitory concentration (IC50) in test [2] stood at 2.3 nM. The ED50 in test [3] is 2.2 mg/kg; in test [4], 31.8 mg/kg.

Take `CC(=O)Nc1ccccc1C(=O)NCCCCN1CCN(c2nsc3ccccc23)CC1.Cl`: the IC50 turned out to be 5.2 nM in test [1] and 2 nM in test [2]. Also, the ED50 was found to be 4.1 mg/kg in test [3] and 22.3 mg/kg in test [4].

`Cl.Nc1cccc(Cl)c1C(=O)NCCCCN1CCN(c2nsc3ccccc23)CC1` displayed an IC50 in test [2] of 3.4 nM. Besides, the ED50 in test [3] was over 25 mg/kg.

`Cl.Nc1cc(C(F)(F)F)ccc1C(=O)NCCCCN1CCN(c2nsc3ccccc23)CC1`: the values for the IC50 in test [1] and in test [2] were 12 nM and 2.3 nM, respectively. Besides, the ED50 in test [3] is 6.9 mg/kg; in test [4], over 50 mg/kg.

As for `COc1ccc(C(=O)NCCCCN2CCN(c3nsc4ccccc34)CC2)cc1.Cl`, the figures for the IC50 in test [1] and in test [2] were 9 nM and 2.3 nM, respectively. Also, the results for the ED50 in test [3] and in test [4] were 2.4 mg/kg and over 25 mg/kg, respectively.

With `CC(C)(C)c1ccc(C(=O)NCCCCN2CCN(c3nsc4ccccc34)CC2)cc1.Cl`, the results for the IC50 in test [1] and in test [2] were 520 nM and 68 nM, respectively. The compound also displayed a median effective dose (ED50) in test [4] of over 25 mg/kg.

Consider `COc1ccc(Br)c(OC)c1C(=O)NCCCCN1CCN(c2nsc3ccccc23)CC1.Cl`, for which the IC50 in test [1] came out at 74 nM; in test [2], 12 nM. This compound had an ED50 in test [3] of over 25 mg/kg.

Consider `Cc1cccc(C(=O)NCCCCN2CCN(c3nsc4ccccc34)CC2)c1N.Cl`, for which the IC50 in test [2] is 5.8 nM. Besides, the median effective dose (ED50) was 5.4 mg/kg in test [3] and 37.6 mg/kg in test [4].

As to `COc1cccc(C(=O)NCCCCN2CCN(c3nsc4ccccc34)CC2)c1N.Cl`, the figures for the 50% inhibitory concentration (IC50) in test [1] and in test [2] were 4.1 nM and 1.6 nM, respectively. Besides, the ED50 in test [3] amounted to 2.2 mg/kg; in test [4], 20.3 mg/kg.

Take `Cl.Nc1cc(F)ccc1C(=O)NCCCCN1CCN(c2nsc3ccccc23)CC1`: the half-inhibitory concentration (IC50) in test [1] is 4.2 nM; in test [2], 0.59 nM. Further, the ED50 in test [3] worked out at 2.5 mg/kg; in test [4], 27.1 mg/kg.

For `Cl.Nc1ccc([N+](=O)[O-])cc1C(=O)NCCCCN1CCN(c2nsc3ccccc23)CC1`, the IC50 came to 20 nM in test [1] and 3.8 nM in test [2]. The 50% effective dose (ED50) in test [3] came to 19.6 mg/kg.

Turning to `Cl.Nc1cccc(F)c1C(=O)NCCCCN1CCN(c2nsc3ccccc23)CC1`, the half-inhibitory concentration (IC50) in test [1] worked out at 4.2 nM; in test [2], 1.6 nM. The results for the ED50 in test [3] and in test [4] were 7.8 mg/kg and 20.8 mg/kg, respectively.

Regarding `Cl.O=C(NCCCCN1CCN(c2nsc3ccccc23)CC1)c1c(O)ccc(Br)c1O`, the results for the 50% inhibitory concentration (IC50) in test [1] and in test [2] were 120 nM and 16 nM, respectively. In addition, the ED50 is 6 mg/kg in test [3] and 28.8 mg/kg in test [4].

As to `Cl.O=C(NCCCCN1CCN(c2nsc3ccccc23)CC1)c1cc(Cl)cc(Cl)c1`, the figures for the 50% inhibitory concentration (IC50) in test [1] and in test [2] were 49 nM and 1.7 nM, respectively. The compound further displayed a median effective dose (ED50) in test [3] of over 25 mg/kg.

In the case of `Cl.Nc1ccc(C(=O)NCCCCN2CCN(c3nsc4ccccc34)CC2)cc1`, the IC50 in test [1] came out at 23 nM; in test [2], 150 nM. Also, the ED50 in test [3] is over 25 mg/kg.

In turn, `CC(=O)Nc1ccc(C(=O)NCCCCN2CCN(c3nsc4ccccc34)CC2)cc1.Cl` returned a 50% inhibitory concentration (IC50) in test [2] of 51 nM. Moreover, the ED50 in test [3] and in test [4] was over 25 mg/kg in each case.

The IC50 is the concentration needed to halve the response being measured. Higher therefore signals lower potency. Broadly, the ED50 is the midpoint of the dose-response relation.

These data come from ChEMBL document CHEMBL1129740, “Structure-activity relationships of a series of substituted benzamides: potent D2/5-HT2 antagonists and 5-HT1a agonists as neuroleptic agents” (J Med Chem, 1996).
